According to ChEMBL document CHEMBL3991601, “The target landscape of clinical kinase drugs” (Science, 2017):
The source made the active and inactive calls. Rule as the data show it, for most assays here: actives have a measured Kd and inactives only a lower limit.

Tests used:
[1] = molecular target: T1, Serine/threonine-protein kinase Nek1 (Homo sapiens, UniProt Q96PY6)
T1 sequence (Q96PY6 whole entry): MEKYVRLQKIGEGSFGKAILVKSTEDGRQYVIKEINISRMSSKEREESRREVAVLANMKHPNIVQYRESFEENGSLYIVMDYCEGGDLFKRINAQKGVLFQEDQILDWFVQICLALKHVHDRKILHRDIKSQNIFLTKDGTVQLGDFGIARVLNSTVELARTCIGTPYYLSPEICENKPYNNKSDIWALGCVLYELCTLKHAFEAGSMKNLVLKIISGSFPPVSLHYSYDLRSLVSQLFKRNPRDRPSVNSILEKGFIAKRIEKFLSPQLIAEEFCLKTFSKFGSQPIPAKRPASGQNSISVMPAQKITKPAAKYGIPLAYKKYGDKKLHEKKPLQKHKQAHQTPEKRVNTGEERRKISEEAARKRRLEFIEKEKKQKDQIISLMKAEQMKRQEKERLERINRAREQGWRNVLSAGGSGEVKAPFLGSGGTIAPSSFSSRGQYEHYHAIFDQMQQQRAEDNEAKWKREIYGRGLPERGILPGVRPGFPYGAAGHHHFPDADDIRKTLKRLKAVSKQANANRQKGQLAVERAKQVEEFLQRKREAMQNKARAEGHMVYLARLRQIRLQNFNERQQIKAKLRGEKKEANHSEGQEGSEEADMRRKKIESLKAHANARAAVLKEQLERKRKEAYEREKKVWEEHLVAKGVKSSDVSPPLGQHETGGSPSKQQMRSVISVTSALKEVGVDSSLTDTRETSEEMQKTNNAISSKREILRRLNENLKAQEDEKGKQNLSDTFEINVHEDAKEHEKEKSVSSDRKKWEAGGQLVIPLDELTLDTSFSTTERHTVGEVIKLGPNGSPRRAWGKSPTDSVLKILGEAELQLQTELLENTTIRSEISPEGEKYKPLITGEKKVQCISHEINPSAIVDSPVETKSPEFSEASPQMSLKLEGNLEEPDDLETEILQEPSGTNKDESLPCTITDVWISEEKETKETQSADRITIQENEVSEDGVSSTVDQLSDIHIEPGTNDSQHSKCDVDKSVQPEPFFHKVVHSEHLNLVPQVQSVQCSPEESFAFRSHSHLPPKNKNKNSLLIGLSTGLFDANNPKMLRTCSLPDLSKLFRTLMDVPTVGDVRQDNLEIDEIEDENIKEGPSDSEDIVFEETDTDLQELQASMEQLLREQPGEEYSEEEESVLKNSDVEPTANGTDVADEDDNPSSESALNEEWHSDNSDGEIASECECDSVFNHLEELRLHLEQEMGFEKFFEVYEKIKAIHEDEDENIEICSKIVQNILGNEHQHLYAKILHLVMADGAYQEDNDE

[2] = molecular target: 5'-AMP-activated protein kinase catalytic subunit alpha-1 (Homo sapiens, UniProt Q13131)
[3] = molecular target: T2, Probable ATP-dependent RNA helicase DDX6 (Homo sapiens, UniProt P26196)
T2 sequence (P26196 whole entry): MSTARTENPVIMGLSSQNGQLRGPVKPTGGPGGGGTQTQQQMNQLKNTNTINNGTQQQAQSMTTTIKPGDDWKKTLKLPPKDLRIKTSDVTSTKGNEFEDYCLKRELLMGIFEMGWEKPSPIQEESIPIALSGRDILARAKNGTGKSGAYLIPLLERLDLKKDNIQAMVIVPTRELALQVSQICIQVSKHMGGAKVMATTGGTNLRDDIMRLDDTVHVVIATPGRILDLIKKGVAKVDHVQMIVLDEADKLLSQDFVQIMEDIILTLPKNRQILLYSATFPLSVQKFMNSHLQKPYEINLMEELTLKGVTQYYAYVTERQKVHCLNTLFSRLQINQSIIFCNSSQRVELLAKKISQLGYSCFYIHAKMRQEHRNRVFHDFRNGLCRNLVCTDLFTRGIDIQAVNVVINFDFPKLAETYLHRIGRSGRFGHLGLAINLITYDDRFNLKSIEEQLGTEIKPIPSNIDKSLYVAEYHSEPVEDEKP

Focal adhesion kinase 1 = Focal adhesion kinase 1 (Homo sapiens, UniProt Q05397)
[4] = molecular target: T3, Phosphatidylinositol 5-phosphate 4-kinase type-2 gamma (Homo sapiens, UniProt Q8TBX8)
T3 sequence (Q8TBX8 whole entry): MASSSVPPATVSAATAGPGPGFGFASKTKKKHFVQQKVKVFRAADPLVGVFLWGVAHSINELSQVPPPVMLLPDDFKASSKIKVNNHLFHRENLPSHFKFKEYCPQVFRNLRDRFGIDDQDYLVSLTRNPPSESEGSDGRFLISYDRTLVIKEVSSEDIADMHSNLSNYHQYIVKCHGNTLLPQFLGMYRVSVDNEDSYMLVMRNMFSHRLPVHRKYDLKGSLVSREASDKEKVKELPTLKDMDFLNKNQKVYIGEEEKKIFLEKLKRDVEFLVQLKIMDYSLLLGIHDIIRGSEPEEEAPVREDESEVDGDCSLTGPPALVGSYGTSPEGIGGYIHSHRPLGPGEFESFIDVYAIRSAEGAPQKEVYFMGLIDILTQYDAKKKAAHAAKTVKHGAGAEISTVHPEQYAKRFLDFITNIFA
Also: in the data inactive means no Kd found up to 30 µM.

Sequence of Focal adhesion kinase 1 (Q05397 whole entry): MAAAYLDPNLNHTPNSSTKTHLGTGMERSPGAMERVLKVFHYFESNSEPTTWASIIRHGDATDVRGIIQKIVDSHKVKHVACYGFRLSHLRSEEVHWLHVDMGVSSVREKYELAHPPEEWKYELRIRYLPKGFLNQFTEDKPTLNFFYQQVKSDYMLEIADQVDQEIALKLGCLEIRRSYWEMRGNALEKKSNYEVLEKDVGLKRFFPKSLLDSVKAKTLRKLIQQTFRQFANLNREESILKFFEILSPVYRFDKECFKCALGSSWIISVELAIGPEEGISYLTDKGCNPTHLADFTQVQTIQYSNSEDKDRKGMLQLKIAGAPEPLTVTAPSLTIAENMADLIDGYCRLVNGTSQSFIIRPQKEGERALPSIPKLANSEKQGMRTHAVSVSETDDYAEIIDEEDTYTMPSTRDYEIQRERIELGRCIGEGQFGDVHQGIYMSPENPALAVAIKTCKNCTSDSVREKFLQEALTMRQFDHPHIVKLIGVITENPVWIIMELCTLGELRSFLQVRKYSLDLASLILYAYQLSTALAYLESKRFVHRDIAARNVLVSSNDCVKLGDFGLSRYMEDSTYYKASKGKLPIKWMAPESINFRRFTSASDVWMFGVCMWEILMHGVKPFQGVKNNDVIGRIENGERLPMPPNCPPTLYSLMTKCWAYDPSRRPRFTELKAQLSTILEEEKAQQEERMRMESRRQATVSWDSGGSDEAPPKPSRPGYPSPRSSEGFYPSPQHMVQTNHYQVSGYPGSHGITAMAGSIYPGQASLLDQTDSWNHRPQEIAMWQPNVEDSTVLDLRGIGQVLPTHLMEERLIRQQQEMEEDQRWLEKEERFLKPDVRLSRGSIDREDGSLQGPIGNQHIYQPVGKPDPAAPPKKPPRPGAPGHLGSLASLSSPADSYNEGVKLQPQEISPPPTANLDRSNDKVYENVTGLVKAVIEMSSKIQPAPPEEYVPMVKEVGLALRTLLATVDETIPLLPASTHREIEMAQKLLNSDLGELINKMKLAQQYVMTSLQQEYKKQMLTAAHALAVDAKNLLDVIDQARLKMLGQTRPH
Sequence of 5'-AMP-activated protein kinase catalytic subunit alpha-1 (Q13131 whole entry): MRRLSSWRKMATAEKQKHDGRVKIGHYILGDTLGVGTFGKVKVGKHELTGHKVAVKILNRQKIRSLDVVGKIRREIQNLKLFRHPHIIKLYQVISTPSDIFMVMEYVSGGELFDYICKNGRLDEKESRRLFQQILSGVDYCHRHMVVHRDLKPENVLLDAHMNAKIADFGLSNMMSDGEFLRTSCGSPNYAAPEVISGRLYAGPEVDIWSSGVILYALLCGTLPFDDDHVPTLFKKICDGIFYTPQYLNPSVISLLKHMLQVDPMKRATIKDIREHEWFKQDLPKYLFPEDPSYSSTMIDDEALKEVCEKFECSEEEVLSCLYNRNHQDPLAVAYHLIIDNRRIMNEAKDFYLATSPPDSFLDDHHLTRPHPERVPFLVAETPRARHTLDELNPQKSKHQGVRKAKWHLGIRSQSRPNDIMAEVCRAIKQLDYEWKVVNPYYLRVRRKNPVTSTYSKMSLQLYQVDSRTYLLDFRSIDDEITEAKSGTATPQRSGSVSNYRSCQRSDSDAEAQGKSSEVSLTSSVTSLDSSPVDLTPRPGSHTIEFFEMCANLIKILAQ

Row | SMILES | Kd [1] | Kd [2] | Kd [3] | Kd (Focal adhesion kinase 1) | Kd [4]
1 | CO[C@H]1C[C@@H]2CC[C@@H](C)[C@@](O)(O2)C(=O)C(=O)N2CCCC[C@H]2C(=O)O[C@H]([C@H](C)C[C@@H]2CC[C@@H](OCCO)[C@H](OC)C2)CC(=O)[C@H](C)/C=C(\C)[C@@H](O)[C@@H](OC)C(=O)[C@H](C)C[C@H](C)/C=C/C=C/C=C/1C [EVEROLIMUS] | > 30 µM (inactive) | > 30 µM (inactive) | > 30 µM (inactive) | > 30 µM (inactive) | > 30 µM (inactive)
2 | CCN1CCN(Cc2ccc(-c3cc4c(N[C@H](C)c5ccccc5)ncnc4[nH]3)cc2)CC1 [AEE-788] | > 30 µM (inactive) | > 30 µM (inactive) | > 30 µM (inactive) | > 30 µM (inactive) | > 30 µM (inactive)
3 | CC(=O)Nc1cccc(-n2c(=O)n(C3CC3)c(=O)c3c(Nc4ccc(I)cc4F)n(C)c(=O)c(C)c32)c1 [TRAMETINIB] | > 30 µM (inactive) | > 30 µM (inactive) | > 30 µM (inactive) | > 30 µM (inactive) | > 30 µM (inactive)
4 | O=C(O)[C@]1(Cc2cccc(Nc3nccs3)n2)CC[C@@H](Oc2cccc(Cl)c2F)CC1 [MK-5108] | > 30 µM (inactive) | > 30 µM (inactive) | > 30 µM (inactive) | > 30 µM (inactive) | > 30 µM (inactive)
5 | C1=C/COCc2cc(ccc2OCCN2CCCC2)Nc2nccc(n2)-c2cccc(c2)COC/1 [PACRITINIB] | > 30 µM (inactive) | > 30 µM (inactive) | > 30 µM (inactive) | > 30 µM (inactive) | > 30 µM (inactive)
6 | N[C@@H]1CCCN(c2c(/C=C3\SC(=O)NC3=O)cccc2-c2ccccc2)C1 | > 30 µM (inactive) | > 30 µM (inactive) | > 30 µM (inactive) | > 30 µM (inactive) | > 30 µM (inactive)
7 | Cc1ccc(NC(=O)c2ccc(CN3CC[C@H](N(C)C)C3)c(C(F)(F)F)c2)cc1Nc1nccc(-c2cncnc2)n1 [BAFETINIB] | > 30 µM (inactive) | > 30 µM (inactive) | > 30 µM (inactive) | > 30 µM (inactive) | 6.18 µM
8 | O=C(Nc1ccc(-c2ccnc(Nc3ccc(N4CCOCC4)cc3)n2)cc1)C1CCCN1 (stereo not given) [XL-019] | > 30 µM (inactive) | > 30 µM (inactive) | > 30 µM (inactive) | > 30 µM (inactive) | 1.59 µM (active)
9 | O=C(c1ccc(F)c(F)c1Nc1ccc(I)cc1F)N1CC(O)([C@@H]2CCCCN2)C1 [COBIMETINIB] | > 30 µM (inactive) | > 30 µM (inactive) | > 30 µM (inactive) | > 30 µM (inactive) | > 30 µM (inactive)
10 | C[C@@H]1CN(Cc2ccc(F)cc2)[C@@H](C)CN1C(=O)c1cc2c(C(=O)C(=O)N(C)C)cn(C)c2cc1Cl [TALMAPIMOD] | > 30 µM (inactive) | > 30 µM (inactive) | > 30 µM (inactive) | > 30 µM (inactive) | > 30 µM (inactive)
11 | Cc1cc(-c2cc(O)ccc2Cl)cc2nnc(Nc3ccc(OCCN4CCCC4)cc3)nc12 | > 30 µM (inactive) | > 30 µM (inactive) | > 30 µM (inactive) | > 30 µM (inactive) | > 30 µM (inactive)
12 | COc1cc(CCc2cc(NC(=O)c3ccc(N4C[C@@H](C)N[C@@H](C)C4)cc3)n[nH]2)cc(OC)c1 [AZD-4547] | > 30 µM (inactive) | > 30 µM (inactive) | > 30 µM (inactive) | > 30 µM (inactive) | > 30 µM (inactive)
13 | Cc1cc([C@@H](C)Nc2ccccc2C(=O)O)c2nc(N3CCOCC3)cc(=O)n2c1 [AZD-6482] | > 30 µM (inactive) | > 30 µM (inactive) | 4.1 µM | > 30 µM (inactive) | > 30 µM (inactive)
